Measurements from US8263656B2 (Hoffmann-La Roche Inc., priority 2008, dated 2012).

Tests used:
[1] = target: T1, human CRTH2 (Homo sapiens, UniProt Q9Y5Y4); test: Human CRTH2 Receptor Binding Assay (whole cell, [3H]ramatroban competition); conditions: CHO-K1 cells expressing human CRTH2 and G-alpha16; 20 nM [3H]ramatroban; 1 hour, room temperature
T1 construct: expressed in transfected cells
T1 sequence (Q9Y5Y4 1-395): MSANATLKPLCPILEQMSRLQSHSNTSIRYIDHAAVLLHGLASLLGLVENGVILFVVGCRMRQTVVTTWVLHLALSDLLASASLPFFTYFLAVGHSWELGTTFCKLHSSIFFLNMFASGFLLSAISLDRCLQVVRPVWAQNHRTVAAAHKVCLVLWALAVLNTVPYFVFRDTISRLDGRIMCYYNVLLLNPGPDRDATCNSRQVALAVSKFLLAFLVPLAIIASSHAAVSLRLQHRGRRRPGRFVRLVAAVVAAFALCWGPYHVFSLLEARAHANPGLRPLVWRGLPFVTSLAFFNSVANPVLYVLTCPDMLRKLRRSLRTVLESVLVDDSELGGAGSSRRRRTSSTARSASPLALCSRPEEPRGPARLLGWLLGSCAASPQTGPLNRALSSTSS
Source text: A whole cell receptor binding assay using [^3H]ramatroban as the competing radioactive ligand was employed to evaluate the compound binding activity to human CRTH2. The radioactive ligand [^3H]ramatroban was synthesized according to Sugimoto et. al. (Eur. J. Pharmacol. 524, 30-37, 2005) to a specific activity of 42 Ci/mmol.
A cell line stably expressing human CRTH2 was established by transfecting CHO-K1 cells with two mammalian expression vectors that harbored human CRTH2 and G-alpha16 cDNAs, respectively, using FuGene® 6 transfection reagent (from Roche). Stable clones expressing CRTH2 were selected by staining each clone with BM16 (BD Pharmingen™ from BD Biosciences, a division of Becton, Dickinson and Company), which is a rat monoclonal antibody to human CRTH2. The cells were maintained as monolayer cultures in Ham's F-12 medium containing 10% fetal bovine serum, 100 units/mL penicillin, […] streptomycin, 2 mM glutamine, 0.5 mg/mL G418 (geneticin) for CRTH2, and 0.2 mg/mL hygromycin-B (for G-alpha 16). For whole cell receptor binding assay, the monolayer cells were rinsed once with PBS (phosphate buffered saline), dissociated using diammonium ethylenediaminetetraacetate (Versene™ EDTA from the Dow Chemical Company), and suspended in PBS containing 10 mM MgCl2 and 0.06% BSA (bovine serum albumin) at 1.5×10^6 cells/mL.
The binding reactions (0.2 mL) were performed in 96-well plates at room temperature in PBS containing 1.5×10^5 cells, 10 mM MgCl2, 0.06% BSA, 20 nM [^3H]ramatroban, and test compound at various concentrations. After 1 hour of binding reactions, the cells were harvested on GF™/B filter microplates (microtiter plates with embedded glass fiber from PerkinElmer, Inc.) and washed 5 times with PBS using a Filtermate™ Harvester (a cell harvester that harvests and washes cells from microplates from PerkinElmer, Inc.). The radioactivities bound to the cells were determined using a microplate scintillation counter (TopCount® NXT, from PerkinElmer, Inc.) after adding 50 μL of Microscint™ 20 scintillation fluid (from PerkinElmer, Inc.) to each well of the filter plates. The radioactivity from non-specific binding was determined by replacing compound with 10 μM of 15(R)-15-methyl PGD2 (from Cayman Chemical Company) in the reaction mixtures. The radioactivity bound to the cells in the absence of compound (total binding) was determined by replacing compound with 0.25% of DMSO (dimethyl sulfoxide) in the reaction mixture. Specific binding data were obtained by subtracting the radioactivity of non-specific binding from each binding data.
The IC50 value is defined as the concentration of the tested compound that is required for 50% inhibition of total specific binding. In order to calculate the IC50 value, the percent inhibition data were determined for 7 concentrations for each compound. The percent inhibition for a compound at each concentration was calculated according to the following formula, [1-(specific binding in the presence of compound)/(total specific binding)]×100. The IC50 value was then obtained by fitting the percent inhibition data to a sigmoidal dose-response (4 parameter logistic) model in the XLfit® software Excel add-in program [from ID Business Solutions Ltd., model 205, where F(x)=(A+(B−A)/(1+((C/x)^D)))].

[2] = system: DK-PGD2-induced IL-13 production in T helper type 2 (Th2) cells; test: DK-PGD2-Induced IL-13 Production Assay in Th2 Cells; type: cell-based; conditions: human Th2 cells, 500 nM DK-PGD2, 4 hrs at 37° C., ELISA; unit inferred; read-out: IC50 of inhibiting IL-13 production (values greater than 10)
Protocol: Inhibition of 13,14-dihydro-15-keto Prostaglandin D2 (DK-PGD2)-induced IL-13 production in T helper type 2 (Th2) cells was applied to evaluate compound cellular potency.
Cultures of Th2 cells were established from blood of healthy human volunteers according to the following procedure. Peripheral blood mononuclear cells (PBMC) were first isolated from 50 mL of fresh blood by Ficoll-Hypaque density gradient centrifugation, followed by CD4^+ cell purification using a CD4^+ T Cell Isolation Kit II (from Miltenyi Biotec Inc.). The CD4^+ T cells were then differentiated to Th2 cells by culturing the cells in X-VIVO 15® medium (from Cambrex BioScience Walkersville Inc.) containing 10% human AB serum (serum of blood type AB from Invitrogen Corporation), 50 U/mL of recombinant human interleukin-2 (rhIL-2) (from PeproTech Inc.) and 100 ng/mL of recombinant human interleukin-4 (rhIL-4) (from PeproTech Inc.) for 7 days. The Th2 cells were isolated using a CD294 (CRTH2) MicroBead Kit (from Miltenyi Biotec Inc.) and amplified in X-VIVO 15® medium containing 10% human AB serum and 50 U/mL of rhIL-2 for 2 to 5 weeks. In general, 70% to 80% of the Th2 cells used in the assay are CRTH2-positive when analyzed by fluorescence-activated cell sorting using the BM16 antibody (as previously described) conjugated to phycoerythrin (PE).
The spontaneous production of IL-13 by Th2 cells was determined in the absence of DK-PGD2 stimulation and the value was subtracted from that in the presence of each compound for percent inhibition and IC50 calculations.
The percent inhibition of interleukin 13 (IL-13) production for a compound at various concentrations was calculated according to the following formula, [1-(IL-13 production in the presence of compound)/(IL-13 production in the presence of 0.15% DMSO)]×100. The IC50 value, defined as the concentration of a compound that is required for 50% inhibition of IL-13 production, was calculated by fitting the percent inhibition data for 7 concentrations to a sigmoidal dose-response (4 parameter logistic) model in the XLfit® software Excel add-in program [ID Business Solutions Ltd., model 205, where F(x)=(A+(B−A)/(1+((C/x)^D)))].

| IC50 [1] | IC50 [2] | SMILES |
| --- | --- | --- |
| 177 nM | > 10 µM | CCc1ccc2c(c1OCC(=O)O)CCCC2N(C)S(=O)(=O)c1cc(C(F)(F)F)cc(C(F)(F)F)c1 (centres unmarked) [Example 2-3, {5-[(3,5-Bis-trifluoromethyl-benzenesulfonyl)-methyl-amino]-2-ethyl-5,6,7,8-tetrahydro-naphthalen-1-yloxy}-acetic acid] |
| 311 nM | > 10 µM | Cc1ccc2c(c1OCC(=O)O)CCCC2N(C)S(=O)(=O)c1cc(C(F)(F)F)cc(C(F)(F)F)c1 (centres unmarked) [Example 2-2, {5-[(3,5-Bis-trifluoromethyl-benzenesulfonyl)-methyl-amino]-2-methyl-5,6,7,8-tetrahydro-naphthalen-1-yloxy}-acetic acid] |
| 981 nM | > 10 µM | CN(C1CCCc2c(OCC(=O)O)cc(F)cc21)S(=O)(=O)c1ccc(Cl)cc1Cl (centres unmarked) [Example 2-16] |
| 536 nM | > 10 µM | CN(C1CCCc2c1cc(Cl)c(F)c2OCC(=O)O)S(=O)(=O)c1ccc(Cl)cc1Cl (centres unmarked) [Example 2-11, {3-Chloro-5-[(2,4-dichloro-benzenesulfonyl)-methyl-amino]-2-fluoro-5,6,7,8-tetrahydro-naphthalen-1-yloxy}-acetic acid] |
| 2.8 nM | – | O=C(O)COc1cc(Br)cc2c1CCC[C@H]2NS(=O)(=O)c1cc(Br)cc(C(F)(F)F)c1 [Example 1-37, [(R)-3-Bromo-5-(3-bromo-5-trifluoromethyl-benzenesulfonyl-amino)-5,6,7,8-tetrahydro-naphthalen-1-yloxy]-acetic acid] |
| 3.5 nM | – | O=C(O)COc1cc(Cl)cc2c1CCCC2NS(=O)(=O)c1ccc(Cl)cc1Cl (centres unmarked) [Example 1-11, [3-Chloro-5-(2,4-dichloro-benzenesulfonyl-amino)-5,6,7,8-tetrahydro-naphthalen-1-yloxy]-acetic acid] |
| 3.6 nM | – | O=C(O)COc1cc(Cl)cc2c1CCCC2NS(=O)(=O)c1cc(Br)cc(C(F)(F)F)c1 (centres unmarked) [Example 1-17, [5-(3-Bromo-5-trifluoromethyl-benzenesulfonyl-amino)-3-chloro-5,6,7,8-tetrahydro-naphthalen-1-yloxy]-acetic acid] |
| 288 nM | – | CN(C1CCCc2c1cc(F)c(F)c2OCC(=O)O)S(=O)(=O)c1cc(Br)cc(C(F)(F)F)c1 (centres unmarked) [Example 2-20, {5-[(3-Bromo-5-trifluoromethyl-benzenesulfonyl)-methyl-amino]-2,3-difluoro-5,6,7,8-tetrahydro-naphthalen-1-yloxy}-acetic acid] |
| 3.4 nM | – | O=C(O)COc1cc(Cl)cc2c1CCC[C@H]2NS(=O)(=O)c1cc(F)cc(C(F)(F)F)c1 [Example 1-41, [(R)-3-Chloro-5-(3-fluoro-5-trifluoromethyl-benzenesulfonyl-amino)-5,6,7,8-tetrahydro-naphthalen-1-yloxy]-acetic acid] |
| 199 nM | – | CN(C1CCCc2c1ccc(F)c2OCC(=O)O)S(=O)(=O)c1cc(C(F)(F)F)cc(C(F)(F)F)c1 (centres unmarked) [Example 2-17] |
| 1160 nM | – | CN(C1CCCc2c1cc(Cl)c(F)c2OCC(=O)O)S(=O)(=O)c1cc(Cl)ccc1Cl (centres unmarked) [Example 2-9, {3-Chloro-5-[(2,5-dichloro-benzenesulfonyl)-methyl-amino]-2-fluoro-5,6,7,8-tetrahydro-naphthalen-1-yloxy}-acetic acid] |
| 5.8 nM | – | O=C(O)COc1cc(Cl)cc2c1CCCC2NS(=O)(=O)c1cc(C(F)(F)F)cc(C(F)(F)F)c1 (centres unmarked) [Example 1-6] |
| 2.8 nM | – | O=C(O)COc1cc(Cl)cc2c1CCC[C@H]2NS(=O)(=O)c1ccc(Cl)cc1Cl [Example 1-18, [(R)-3-Chloro-5-(2,4-dichloro-benzenesulfonyl-amino)-5,6,7,8-tetrahydro-naphthalen-1-yloxy]-acetic acid] |
| 380 nM | – | CN(C1CCCc2c1cc(F)c(F)c2OCC(=O)O)S(=O)(=O)c1cc(F)cc(C(F)(F)F)c1 (centres unmarked) [Example 2-24, {2,3-Difluoro-5-[(3-fluoro-5-trifluoromethyl-benzenesulfonyl)-methyl-amino]-5,6,7,8-tetrahydro-naphthalen-1-yloxy}-acetic acid] |
| 33.7 nM | – | O=C(O)COc1c(F)ccc2c1CCCC2NS(=O)(=O)c1cc(C(F)(F)F)cc(C(F)(F)F)c1 (centres unmarked) [Example 1-22, [5-(3,5-Bis-trifluoromethyl-benzenesulfonyl-amino)-2-fluoro-5,6,7,8-tetrahydro-naphthalen-1-yloxy]-acetic acid] |
| 11.2 nM | – | CN(C1CCCc2c(OCC(=O)O)cc(Cl)cc21)S(=O)(=O)c1cc(F)cc(C(F)(F)F)c1 (centres unmarked) [Example 2-14, {3-Chloro-5-[(3-fluoro-5-trifluoromethyl-benzenesulfonyl)-methyl-amino]-5,6,7,8-tetrahydro-naphthalen-1-yloxy}-acetic acid] |
| 2.9 nM | – | O=C(O)COc1cc(Br)cc2c1CCCC2NS(=O)(=O)c1cc(C(F)(F)F)cc(C(F)(F)F)c1 (centres unmarked) [Example 1-19, [5-(3,5-Bis-trifluoromethyl-benzenesulfonyl-amino)-3-bromo-5,6,7,8-tetrahydro-naphthalen-1-yloxy]-acetic acid] |
| 7.1 nM | – | O=C(O)COc1cc(Cl)cc2c1CCCC2NS(=O)(=O)c1cc(Cl)ccc1Cl (centres unmarked) [Example 1-13, [3-Chloro-5-(2,5-dichloro-benzenesulfonyl-amino)-5,6,7,8-tetrahydro-naphthalen-1-yloxy]-acetic acid] |
| 8 nM | – | O=C(O)COc1c(F)c(Cl)cc2c1CCCC2NS(=O)(=O)c1cc(Br)cc(C(F)(F)F)c1 (centres unmarked) [Example 1-15, [5-(3-Bromo-5-trifluoromethyl-benzenesulfonyl-amino)-3-chloro-2-fluoro-5,6,7,8-tetrahydro-naphthalen-1-yloxy]-acetic acid] |
